Measurements published in paper PMC5733478, “A Non-imaging High Throughput Approach to Chemical Library Screening at the Unmodified Adenosine-A3 Receptor in Living Cells” (Frontiers in Pharmacology, 2017).
Counter-ions that a name gives are not always drawn. Like-named read-outs stand apart in the source and are kept apart here.

Molecular target: T1, human A3AR (Homo sapiens, UniProt P0DMS8)
T1 construct: expressed in transfected cells
T1 sequence (P0DMS8 1-318): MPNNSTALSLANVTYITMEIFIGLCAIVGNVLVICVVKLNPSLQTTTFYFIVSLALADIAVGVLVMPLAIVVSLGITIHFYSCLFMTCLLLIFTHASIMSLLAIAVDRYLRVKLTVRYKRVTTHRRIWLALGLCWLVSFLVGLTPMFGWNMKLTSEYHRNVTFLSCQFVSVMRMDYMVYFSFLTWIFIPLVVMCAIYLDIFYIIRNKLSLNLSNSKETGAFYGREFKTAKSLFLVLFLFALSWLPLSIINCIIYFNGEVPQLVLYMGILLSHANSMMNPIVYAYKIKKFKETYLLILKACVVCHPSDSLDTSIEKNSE
Test: LOPAC library primary screen: single concentration (10 μM) inhibition of 25 nM CA200645 binding, PHERAstar FS

[1] = % of control wells (1% DMSO and 25 nM CA200645), compounds at 10 µM, whole live cells expressing the A3AR, mean ± SD, three experiments in duplicate

| Compound | % 25 nM CA200645 binding [%] | other results |
| --- | --- | --- |
| CC(=O)[C@H]1CC[C@H]2[C@@H]3CC=C4C[C@@H](OS(=O)(=O)[O-])CC[C@]4(C)[C@H]3CC[C@]12C.[Na+] [Pregnenolone sulfate sodium] | 100.9 ± 23.1 |  |
| COC(=O)[C@@H]1[C@H]2C[C@H]3c4[nH]c5ccccc5c4CCN3C[C@@H]2CC[C@@H]1O [Yohimbine hydrochloride] | 100.6 ± 0.5 |  |
| NNC(=O)c1ccc(O)cc1 [4-Hydroxybenzhydrazide] | 105.3 ± 8.4 |  |
| COc1cc2c(cc1OC)C1CC(=O)C(CC(C)C)CN1CC2 (stereo not drawn) [Tetrabenazine] | 91.3 ± 18.4 |  |
| CC(=O)OCC(=O)[C@@]1(O)CC[C@H]2[C@@H]3CCC4=CC(=O)CC[C@]4(C)[C@H]3C(=O)C[C@@]21C [Cortisone 21-acetate] | 92.1 ± 5.7 |  |
| CN1CCc2cc(Cl)c(O)cc2[C@@H](c2ccccc2)C1.Cl [R(+)-SCH-23390 hydrochloride] | 96.2 ± 12.3 |  |
| Oc1cc(-c2ccccc2)nc2nc(Cl)ccc12 | 77.8 ± 8.8 |  |
| CC(C)NCC(O)c1ccc(NS(C)(=O)=O)cc1.Cl (racemic) [(±)-Sotalol hydrochloride] | 93.5 ± 12.0 |  |
| O=P1(N(CCCl)CCCl)NCCCO1 (stereo not drawn) [Cyclophosphamide monohydrate] | 79.2 ± 18.9 |  |
| O=C(O)/C=C\C(=O)O.O=C(O)/C=C\C(=O)O.c1cc(CN2CCCCC2)cc(OCCCNc2nc3ccccc3s2)c1 [SKF 95282 dimaleate] | 120.1 ± 40.0 |  |
| CCCCc1ncc(/C=C(\Cc2cccs2)C(=O)O)n1Cc1ccc(C(=O)O)cc1 [Eprosartan mesylate] | 97.5 ± 15.0 |  |
| O=c1c(-c2ccc(O)cc2)coc2cc(O)cc(O)c12 [Genistein] |  | % 25 nM CA200645 binding [1]: 66.1 ± 12.2% |
| N=C(N)NC(=O)c1nc(Cl)c(N)nc1N [Amiloride hydrochloride] | 88.5 ± 23.0 |  |
| O=[N+]([O-])c1ccc(CSc2ncnc3c2ncn3[C@@H]2O[C@H](CO)[C@@H](O)[C@H]2O)cc1 [S-(4-Nitrobenzyl)-6-thioinosine] | 95.1 ± 33.3 |  |
| NC(CO)(CO)CO.O=C(c1ccccc1)c1ccc2n1CCC2C(=O)O (stereo not drawn) [Ketorolac tris salt] | 93.7 ± 13.0 |  |
| Oc1ccc(/C=C/c2cc(O)cc(O)c2)cc1 [Resveratrol] |  | % 25 nM CA200645 binding [1]: 100.3 ± 16.3% |
| Br.CO[C@H]1CC=C2CCN3CCC4=C(CC(=O)OC4)[C@]23C1 [Dihydro-beta-erythroidine hydrobromide] | 94.0 ± 5.4 |  |
| COc1cccc(-c2cc(=O)c3ccccc3o2)c1N [PD 98,059] | 80.7 ± 2.6 |  |
| CN(CC[C@@H](Oc1ccc(C(F)(F)F)cc1)c1ccccc1)CC(=O)[O-].[Li+] [Org 24598 lithium salt] | 94.3 ± 5.8 |  |
| CCN1C[C@]2(COC)[C@H](O)C[C@H](OC)[C@@]34[C@@H]5C[C@@]6(O)[C@H](OC(=O)c7ccccc7)[C@@H]5[C@@](OC(C)=O)([C@@H]([C@H](OC)[C@H]23)[C@@H]14)[C@@H](O)[C@@H]6OC [Aconitine] | 95.2 ± 4.4 |  |
| CC(C)NCC(O)c1cc(O)cc(O)c1.CC(C)NCC(O)c1cc(O)cc(O)c1.O=S(=O)(O)O (stereo not drawn) [Metaproterenol hemisulfate] | 102.0 ± 5.4 |  |
| COc1cccc(OC)c1OCCNCC1CSc2ccccc2O1 (stereo not drawn) [Benoxathian hydrochloride] | 95.8 ± 4.4 |  |

| Compound | % 25 nM CA200645 binding [%] | other results |
| --- | --- | --- |
| CCN1CCCC1CNC(=O)c1cc(S(N)(=O)=O)ccc1OC (racemic) [(±)-Sulpiride] | 102.1 ± 6.1 |  |
| Cc1c(OCC(F)(F)F)ccnc1C[S+]([O-])c1nc2ccccc2[nH]1 (stereo not drawn) [Lansoprazole] | 100.3 ± 13.0 |  |
| C[C@@H]1O[C@@H]1P(=O)(O)O [Phosphomycin disodium] | 98.9 ± 12.7 |  |
| CN1C2CCCC1CC(NC(=O)c1nn(C)c3ccccc13)C2 (stereo not drawn) [Granisetron hydrochloride] | 100.4 ± 14.5 |  |
| Clc1nccc2c1ccc1ccccc12 [CBIQ] | 87.1 ± 7.0 |  |
| CCC1(C2=NCCN2)Cc2ccccc2O1 (stereo not drawn) [Efaroxan hydrochloride] |  | % 25 nM CA200645 binding (compounds tested at 10 µM, % of control wells (1% DMSO and 25 nM CA200645), whole live cells expressing the A3AR, mean ± SD, three experiments in duplicate): 95.2 ± 6.3% |
| C[C@@H]1O[C@@H](O[C@H]2C[C@@H](O)[C@]3(CO)[C@H]4[C@H](O)C[C@]5(C)[C@@H]([C@@H]6COC(=O)C6)CC[C@]5(O)[C@@H]4CC[C@]3(O)C2)[C@H](O)[C@H](O)[C@H]1O [Dihydroouabain] | 102.4 ± 11.9 |  |
| CCOC(=O)N1CCC(=C2c3ccc(Cl)cc3CCc3cccnc32)CC1 [Loratadine] | 85.0 ± 1.8 |  |
| NC(=O)c1cc[n+](CC2=C(C(=O)[O-])N3C(=O)[C@@H](NC(=O)C(c4ccccc4)S(=O)(=O)[O-])[C@H]3SC2)cc1.O.[Na+] (stereo partly drawn) [Cefsulodin sodium salt hydrate] | 100.8 ± 6.6 |  |
| Ro 41-0960 | 98.8 ± 6.8 |  |
| C[C@@H](N)Cc1cnc[nH]1.Cl.Cl | 98.7 ± 8.4 |  |
| COc1cc(CNC(=O)CCCCCCC(C)C)ccc1O [Dihydrocapsaicin] | 86.7 ± 9.6 |  |
| CC(C)c1cccc(C(C)C)c1N1C(=O)c2ccc(O)cc2C1=O [5HPP-33] | 91.1 ± 9.2 |  |
| CN1Cc2c(N)cccc2C(c2ccccc2)C1 (stereo not drawn) [Nomifensine maleate] | 98.5 ± 14.7 |  |
| Oc1ccc(O)cc1 [Hydroquinone] | 100.7 ± 6.6 |  |
| S=C([S-])OC1CC2CC1C1CCCC21.[K+] [D-609 potassium] | 95.5 ± 4.1 |  |
| N.N.O=C([O-])C1(C(=O)[O-])CCC1.[Pt+2] [Carboplatin] | 97.7 ± 5.9 |  |
| Cl.NCCC[C@](N)(C(=O)O)C(F)F (racemic) | 103.2 ± 12.1 |  |
| CCCn1c(=O)c2c(ncn2C)n(CCC)c1=O [1,3-Dipropyl-7-methylxanthine] | 102.9 ± 21.6 |  |
| Cl.c1ccc(CN(CC2=NCCN2)c2ccccc2)cc1 [Antozoline hydrochloride] | 97.0 ± 6.0 |  |
| Cl.NCC(O)C1CCCCCCC1 (stereo not drawn) | 94.5 ± 6.6 |  |
| NCCS(=O)O [Hypotaurine] | 94.6 ± 26.1 |  |

| Compound | % 25 nM CA200645 binding [%] | other results |
| --- | --- | --- |
| OCC(CO)(CBr)CBr [BBMP] | 93.9 ± 9.9 |  |
| Cc1cccc(-c2[nH]c(C(C)(C)C)nc2-c2ccc3nccnc3c2)n1 [SB-525334] | 76.3 ± 9.5 |  |
| N#C/C(=C\c1ccc(-c2cc(Cl)ccc2Cl)o1)C(=O)Nc1cccc2ncccc12 [AGK2] | 35.8 ± 5.6 |  |
| COc1ccccc1N1CCN(CCN(C(=O)c2ccc(F)cc2)c2ccccn2)CC1.Cl.Cl [p-MPPF dihydrochloride] | 117.8 ± 19.4 |  |
| O=C1CCC(N2C(=O)c3ccccc3C2=O)C(=O)N1 (racemic) [(±)-Thalidomide] | 108.7 ± 11.6 |  |
| O=C(O)CCCCC1CCSS1 (racemic) [(±)-alpha-Lipoic Acid] | 99.7 ± 5.6 |  |
| CC(C)NCC(O)COc1ccc(COCCOC(C)C)cc1.CC(C)NCC(O)COc1ccc(COCCOC(C)C)cc1.O=C(O)/C=C/C(=O)O (stereo not drawn) [Bisoprolol hemifumarate salt] | 106.9 ± 6.1 |  |
| O=C(O)c1ccccc1Nc1ccccc1 [N-Phenylanthranilic acid] | 95.2 ± 6.4 |  |
| C[C@@](Cc1ccc(O)c(O)c1)(NN)C(=O)O [S-(-)-Carbidopa] | 101.3 ± 7.8 |  |
| O=C1NC(=O)C(c2ccccc2)(c2ccccc2)N1 [5,5-Diphenylhydantoin] | 95.9 ± 12.2 |  |
| Clc1ccc(N2CCN(Cc3cc4ccccn4n3)CC2)cc1 [FAUC 213] | 76.8 ± 3.4 |  |
| COC(=O)C(N)Cc1ccc(Cl)cc1.Cl (racemic) | 95.7 ± 6.7 |  |
| CNCCCC1c2ccccc2C=Cc2ccccc21 [Protriptyline hydrochloride] | 101.6 ± 7.3 |  |
| CCCN(CCC)C(=O)C(CCC(=O)O)NC(=O)c1ccccc1 (stereo not drawn) [Proglumide] | 107.1 ± 0.6 |  |
| O=C(O)/C=C\C(=O)O.O=C1/C(=C/c2ccccc2)C[C@@]2(O)[C@H]3Cc4ccc(O)c5c4[C@@]2(CCN3CC2CC2)[C@H]1O5 [BNTX maleate salt hydrate] | 109.9 ± 5.7 |  |
| CN(C)CCCN1c2ccccc2CCc2ccccc21 [Imipramine hydrochloride] | 99.2 ± 4.6 |  |
| CNCC[C@H](Oc1ccc(C(F)(F)F)cc1)c1ccccc1.Cl [S-(+)-Fluoxetine hydrochloride] | 102.0 ± 9.9 |  |
| COc1ccc2c(c1OC)C(=O)OC2C1c2cc3c(cc2CCN1C)OCO3 (single isomer, unassigned; (+)) [(+)-Hydrastine] | 95.9 ± 10.1 |  |
| CCN(CC)c1ncnc2c1ncn2[C@@H]1O[C@H](COP(=O)([O-])OP(=O)([O-])C(Br)(Br)P(=O)([O-])O)[C@@H](O)[C@H]1O.[Na+].[Na+].[Na+] [ARL 67156 trisodium salt] | 103.2 ± 16.2 |  |
| C=C1C[C@@]23CC[C@H]4[C@@](C)(CCC[C@@]4(C)C(=O)O[C@@H]4O[C@H](CO)[C@@H](O)[C@H](O)[C@H]4O)[C@@H]2CC[C@]1(O[C@@H]1O[C@H](CO)[C@@H](O)[C@H](O)[C@H]1O[C@@H]1O[C@H](CO)[C@@H](O)[C@H](O)[C@H]1O)C3 [Stevioside] | 92.4 ± 13.9 |  |
| CN(N=O)c1ccc(O)c(O)c1 [Me-3,4-dephostatin] | 87.0 ± 11.0 |  |
| Cc1cc(N)c2ccccc2[n+]1CCCCCCCCCC[n+]1c(C)cc(N)c2ccccc21.[Cl-].[Cl-] [Dequalinium chloride hydrate] | 86.1 ± 10.0 |  |
